In paper PMC10933344, “A lncRNA Dleu2-encoded peptide relieves autoimmunity by facilitating Smad3-mediated Treg induction” (EMBO Reports, 2024):

Columns and labels:
naive CD4+ T cells = test: In vitro iTreg differentiation (Foxp3+ of CD4+ cells); format: cell-based, mouse; details: 20 μM, 72 h
Protocol: C57BL/6 mice were sacrificed, and their spleens and peripheral lymph nodes were removed and gently dissociated into single-cell suspensions. Naive T cells were isolated using the Mouse CD4 Naive T Cell Isolation Kit (BioLegend, Stem Cell, or Thermo Fisher Scientific). Flow cytometry verified that the purity (CD4^+CD25^−CD62L^hi) of the enriched subpopulation was typically higher than 95%. All T cells were cultured using RPMI-1640 medium (Gibco) supplemented with 10% heat-inactivated fetal bovine serum (Gibco), 2 mM L-glutamine (Gibco), 10,000 units/mL of penicillin, 10,000 µg/mL of streptomycin, and 25 µg/mL of Gibco Amphotericin B (Thermo Fisher Scientific), 10 mM HEPES (Gibco), 1 mM Sodium pyruvate, MEM Non-Essential Amino Acids (Life Technologies) and 55 μM β-mercaptoethanol (Gibco). 0.1 million naive CD4^+ T cells were activated with plate-coated anti-CD3 (2.5 μg/ml; BD Biosciences) and soluble anti-CD28 (2 μg/ml; BD Biosciences) antibodies. The Th1 cell differentiation condition included recombinant murine (rm)IL-12 (10 ng/ml, PeproTech) and anti-IL-4 (10 μg/ml, BioLegend). The Th17 cell differentiation condition included rmIL-6 (10 ng/ml, PeproTech), rmTGF-β1 (5 ng/ml, PeproTech), rmIL-23 (10 ng/ml, PeproTech), anti-IL-4 (5 μg/ml, BioLegend) and anti-IFN-γ (10 μg/ml, eBioscience). The inducible T regulatory cell (iTreg) differentiation condition included rmTGF-β (5 ng/ml, PeproTech). 0.1 million naive CD8^+ T cells were activated with plate-coated anti-CD3 (10 μg/ml; BD Biosciences) and plate-coated anti-CD28 (10 μg/ml; BD Biosciences) antibodies. The Tc17 cell differentiation condition included rmIL-6 (10 ng/ml, PeproTech), rmTGF-β1 (2 ng/ml, PeproTech), rmIL-23 (25 ng/ml, PeproTech), rmIL1-β (5 ng/ml, PeproTech), and anti-IFN-γ (10 μg/ml, eBioscience). The Tc1 cell differentiation condition included rmIL-2 (5 ng/ml, PeproTech) and rm IL-12 (1 ng/ml, PeproTech). Different concentrations of Dleu2-17aa and scrPEP (Genscript) were added to the T cell culture from the beginning unless specified. Cells were cultured in U-bottom 96-well plates for 72 h and detected by flow cytometry.
For in vitro mouse T cell differentiation, after 72 h of induction, cells were activated for 4–6 h at 37 °C with the Cell Stimulation Cocktail (Thermo Fisher Scientific) if intracellular cytokine staining is needed, surface markers were stained in FACS buffer (PBS containing 2% FBS) for 30 min at 4 °C protected from light. Cells were then fixed and permeabilized with the Foxp3 Staining Buffer Set (eBioscience) or BD Cytofix/Cytoperm (BD Biosciences) and were stained with fluorescent antibodies. After washing, stained cells were assayed with an LSRFortessa (BD) flow cytometer, and data were analyzed with FlowJo software. Single-cell suspensions from EAE mouse spleen or CNS (day 16 post-immunization) were derived through mechanical separation and passage through a 70-μm filter (Fisherbrand) and analyzed using similar steps. For flow cytometry, antibodies against CD4 (clone GK1.5, 1:200), CD62L (clone MEL-14, 1:200), CD44 (clone IM7, 1:200), CD25 (clone PC61.5, 1:200), IL-17A (clone eBio17B7, 1:200), IFN-γ (clone XMG1.2, 1:200), FoxP3 (clone FJK-16s, 1:200), CD184 (clone 2B11/CXCR4, 1:100), CD152 (clone BNI3 1:100) and CD357 (clone DTA-1 1:100) were from eBioscience, CD3 (clone 145-2C11, 1:200) was from Biolegend and TGFBI (1:100) were from proteintech. For Dleu2-17aa expression detection, C57BL/6 mice were sacrificed, and their spleens were removed and gently dissociated into single-cell suspensions. An Fc blocker was used to reduce potential nonspecific antibody staining caused by IgG. Surface staining was performed using monoclonal antibodies against CD45 (clone 30-F11), CD3 (clone 145-2C11), CD19 (clone SJ25C1), CD11c (clone N418), MHCII (clone M5/114.15.2), F4/80 (clone BM8) all at a dilution of 1:200 (from Biolengend) followed by fixation and permeabilization of the nuclear membrane BD Cytofix/Cytoperm (BD Biosciences). […]

[1] = tested on: Smad3 binding to Foxp3 CNS1 region; test: EMSA, Foxp3 CNS1 probe, NIH/3T3 nuclear lysates; details: 3, 10, 30 μM; NIH/3T3 nuclear extracts
Protocol: EMSA was performed using the LightShift Chemiluminescent EMSA kit (Thermo Fisher Scientific, #20148). Briefly, Nuclear extracts of NIH/3T3 cells were prepared using theNE-PER Nuclear and Cytoplasmic Extraction Kit (Thermo Fisher Scientific, #78835). Complementary DNA oligonucleotide Foxp3 CNS1 region probes were 5′-[…]-3′ and 5′-[…]-3′, AP-1 probes were 5′-[…]-3′ and 5′-[…]-3′, PAI-1 probes were 5′-[…]-3′ and 5′-[…]-3′. Probes were end-labeled with biotin and annealed. The reaction mix consists of labeled oligonucleotides, 10 µg of the nuclear extracts, and 3, 10, 30 μM Dleu2-17aa or scrPEP. The binding reaction was incubated at room temperature for 30 min, followed by loading onto a 6% native DNA polyacrylamide gel. The gel was prerun and run with […] Tris-Borate-EDTA and processed according to the manufacturer’s instructions.

Smad3 binding to the CNS1 region of Foxp3 (EMSA) [1]: did not
Sequence: ARGPARRMRGGRRRRLR [scrPEP, scrambled control peptide of Dleu2-17aa]
Foxp3+/ CD4+ Cells (%) (naive CD4+ T cells; replicate 1): 32.8%
Foxp3+/ CD4+ Cells (%) (naive CD4+ T cells; replicate 2): 22.9%
Foxp3+/ CD4+ Cells (%) (naive CD4+ T cells; replicate 3): 16.77%
Foxp3+/ CD4+ Cells (%) (naive CD4+ T cells; replicate 4): 32.13%
Foxp3+/ CD4+ Cells (%) (naive CD4+ T cells; replicate 5): 22.9%
Foxp3+/ CD4+ Cells (%) (naive CD4+ T cells; replicate 6): 10.3%
Foxp3+/ CD4+ Cells (%) (naive CD4+ T cells; replicate 7): 30.6%
